The compounds below were run against PIK3CA (human) (UniProt P42336) (assay: Cell-Based Assay). Details: bt20.
Sequence of PIK3CA (human) (P42336 whole entry, looked up): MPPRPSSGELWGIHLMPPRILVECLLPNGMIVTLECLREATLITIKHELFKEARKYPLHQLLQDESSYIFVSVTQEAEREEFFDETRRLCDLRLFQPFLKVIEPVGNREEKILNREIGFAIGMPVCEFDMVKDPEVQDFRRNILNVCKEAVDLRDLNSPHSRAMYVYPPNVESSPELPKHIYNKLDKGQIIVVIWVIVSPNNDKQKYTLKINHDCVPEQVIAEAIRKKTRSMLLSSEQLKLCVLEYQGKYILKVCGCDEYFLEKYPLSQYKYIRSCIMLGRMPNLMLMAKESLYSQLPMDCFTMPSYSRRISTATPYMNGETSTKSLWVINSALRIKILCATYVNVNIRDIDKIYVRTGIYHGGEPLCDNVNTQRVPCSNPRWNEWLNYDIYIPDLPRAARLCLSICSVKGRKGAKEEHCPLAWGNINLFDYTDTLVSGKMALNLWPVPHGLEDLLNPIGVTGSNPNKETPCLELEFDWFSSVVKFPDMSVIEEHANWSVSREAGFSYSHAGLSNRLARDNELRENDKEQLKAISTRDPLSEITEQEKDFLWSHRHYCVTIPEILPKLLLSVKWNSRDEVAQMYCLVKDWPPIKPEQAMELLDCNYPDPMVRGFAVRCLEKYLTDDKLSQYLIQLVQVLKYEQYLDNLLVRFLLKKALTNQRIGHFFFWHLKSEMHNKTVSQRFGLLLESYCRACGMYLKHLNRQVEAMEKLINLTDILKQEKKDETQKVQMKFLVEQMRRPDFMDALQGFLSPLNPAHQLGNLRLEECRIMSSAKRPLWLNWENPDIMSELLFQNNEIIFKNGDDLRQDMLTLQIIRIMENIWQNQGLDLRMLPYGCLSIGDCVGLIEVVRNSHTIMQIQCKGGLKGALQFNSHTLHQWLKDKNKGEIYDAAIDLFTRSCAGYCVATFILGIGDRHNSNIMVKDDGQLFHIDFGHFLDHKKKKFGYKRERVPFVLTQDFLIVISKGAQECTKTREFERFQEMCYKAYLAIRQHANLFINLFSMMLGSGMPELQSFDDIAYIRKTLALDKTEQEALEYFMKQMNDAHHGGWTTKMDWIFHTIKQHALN

Point of comparison: `CNC(=O)N1CCC(n2c(=O)n(C)c3cnc4ccc(-c5cnc(OC)nc5)nc4c32)CC1`, IC50 68.1 nM. Against it:
- Cc1ccc(-c2ccc3ncc4c(c3n2)n(C2CCN(C(N)=O)CC2)c(=O)n4C)cn1 — 1.6-fold higher, 112 nM
- CC(=O)N1CCC(n2c(=O)n(C)c3cnc4ccc(-c5ccc(N)nc5)nc4c32)CC1 — 7.4-fold lower, 9.17 nM
- COc1ncc(-c2ccc3ncc4c(c3n2)n(C2CCN(C(=O)[C@H](C)O)CC2)c(=O)n4C)cn1 — 2-fold lower, 34.2 nM
- COc1ncc(-c2ccc3ncc4c(c3n2)n(C2CCN(C(=O)CN(C)C)CC2)c(=O)n4C)cn1 — 2.6-fold higher, 175 nM
- Cn1c(=O)n([C@H]2CC[C@H](O)CC2)c2c3nc(-c4cccc5[nH]ccc45)ccc3ncc21 — 7.1-fold lower, 9.61 nM
- Cn1c(=O)n(C2CCN(C(=O)C(C)(C)N)CC2)c2c3nc(-c4cnc5ccccc5c4)ccc3ncc21 — 5.8-fold lower, 11.7 nM
- CNC(=O)N1CCC(n2c(=O)n(C)c3cnc4ccc(-c5ccc(N(C)C)nc5)nc4c32)CC1 — 2.8-fold lower, 24.3 nM
- Cc1ccc(-c2ccc3ncc4c(c3n2)n(C2CCN(CC(N)=O)CC2)c(=O)n4C)cn1 — 3.6-fold lower, 18.7 nM
- C[C@H](CO)n1c(=O)n(C)c2cnc3ccc(-c4cccc5[nH]ccc45)nc3c21 — within 1.5-fold, 55.3 nM
- COc1ncc(-c2ccc3ncc4c(c3n2)n(C2CCN(CC(N)=O)CC2)c(=O)n4C)cn1 — within 1.5-fold, 90.3 nM
- CCC(=O)N1CCC(n2c(=O)n(C)c3cnc4ccc(-c5cnc6ccccc6c5)nc4c32)CC1 — 8.7-fold lower, 7.86 nM
- CN(C)c1ccc(-c2ccc3ncc4c(c3n2)n(C2CCN(C(=O)CO)CC2)c(=O)n4C)cn1 — 11-fold lower, 6.23 nM
- Cn1c(=O)n(C2CCOCC2)c2c3nc(-c4cnc(N)nc4)ccc3ncc21 — 9.8-fold lower, 6.94 nM
- COc1ccc(-c2ccc3ncc4[nH]c(=O)n([C@H]5CC[C@H](OCCO)CC5)c4c3n2)cn1 — 1.8-fold lower, 38.4 nM
- COc1ccc(-c2ccc3ncc4c(c3n2)n(C2CCN(C(=O)[C@H](C)O)CC2)c(=O)n4C)cc1 — 4.9-fold lower, 14 nM
- Cc1ccc(-c2ccc3ncc4c(c3n2)n(-c2ccc(C(C)(C)C#N)cc2)c(=O)n4C)cn1 — 2.8-fold lower, 24.4 nM
- COc1ncc(-c2ccc3ncc4c(c3n2)n(C2CCN(CC(=O)N(C)C)CC2)c(=O)n4C)cn1 — 1.8-fold lower, 37 nM
- CN1CCC(n2c(=O)n(C)c3cnc4ccc(-c5cnc6[nH]ncc6c5)nc4c32)CC1 — 3.1-fold lower, 21.8 nM
- CN(C)c1ccc(-c2ccc3ncc4c(c3n2)n(-c2ccc(C(C)(C)C#N)cc2)c(=O)n4C)cn1 — 2.2-fold lower, 30.9 nM
- Cn1c(=O)n(C2CCOCC2)c2c3nc(-c4cnn(CCO)c4)ccc3ncc21 — 8.5-fold higher, 579 nM
- Cn1c(=O)n([C@H]2CC[C@H](O)CC2)c2c3nc(-c4cc[nH]n4)ccc3ncc21 — 3.9-fold higher, 264 nM
- Cn1c(=O)n(C2CCN(C(=O)CO)CC2)c2c3nc(-c4cnc5[nH]ncc5c4)ccc3ncc21 — within 1.5-fold, 59.4 nM
- Cn1c(=O)n(C2CCN(C(=O)CO)CC2)c2c3nc(-c4cccc5[nH]ncc45)ccc3ncc21 — within 1.5-fold, 60.4 nM
- CC(=O)N1CCC(n2c(=O)n(C)c3cnc4ccc(-c5cccc6ncccc56)nc4c32)CC1 — 2.8-fold higher, 194 nM
- CN1CCC(n2c(=O)n(C)c3cnc4ccc(-c5cnc6ccccc6c5)nc4c32)CC1 — 5.8-fold lower, 11.7 nM
- CCOC(=O)N1CCC(n2c(=O)n(C)c3cnc4ccc(-c5cnc6ccccc6c5)nc4c32)CC1 — 3.3-fold lower, 20.4 nM
- CN(C)c1ccc(-c2ccc3ncc4c(c3n2)n(C2CCN(C(=O)C(C)(C)C)CC2)c(=O)n4C)cn1 — 3.2-fold lower, 21.4 nM
- CN(C)c1ccc(-c2ccc3ncc4c(c3n2)n([C@H]2CC[C@H](OCCO)CC2)c(=O)n4C)cn1 — 5.9-fold lower, 11.6 nM
- CC(=O)N1CCC(n2c(=O)n(C)c3cnc4ccc(-c5cnn(C)c5)nc4c32)CC1 — 2-fold higher, 133 nM
- COc1ncc(-c2ccc3ncc4c(c3n2)n(C2CCN(C(=O)CN)CC2)c(=O)n4C)cn1 — 2.7-fold higher, 184 nM
- COc1ccc(-c2ccc3ncc4c(c3n2)n([C@@H](C)CO)c(=O)n4C)cn1 — 3.9-fold higher, 266 nM
- Cn1cc(-c2ccc3ncc4c(c3n2)n(C2CCN(CC(N)=O)CC2)c(=O)n4C)cn1 — 3.4-fold higher, 232 nM
- CC(C)(C#N)c1ccc(-n2c(=O)[nH]c3cnc4ccc(-c5cnc6ccccc6c5)nc4c32)cc1 — 11-fold lower, 6.47 nM
- COc1ncc(-c2ccc3ncc4c(c3n2)n(-c2ccc(C(C)(C)C#N)cc2)c(=O)n4C)cn1 — 2.5-fold lower, 27.2 nM
- C[C@@H](CO)n1c(=O)n(C)c2cnc3ccc(-c4cnn(C)c4)nc3c21 — 74-fold higher, 5040 nM
- N[C@H]1CC[C@H](n2c(=O)[nH]c3cnc4ccc(-c5cnc6ccccc6c5)nc4c32)CC1 — 5.9-fold higher, 402 nM
- Cc1ccc(-c2ccc3ncc4c(c3n2)n(C2CCNCC2)c(=O)n4C)cn1 — within 1.5-fold, 101 nM
- COCC(=O)N1CCC(n2c(=O)n(C)c3cnc4ccc(-c5cnc6[nH]ncc6c5)nc4c32)CC1 — 4.5-fold lower, 15.3 nM
- CN[C@H]1CC[C@H](n2c(=O)n(C)c3cnc4ccc(-c5cnc6ccccc6c5)nc4c32)CC1 — 5.9-fold higher, 404 nM
- Cn1c(=O)n([C@H]2CC[C@H](O)CC2)c2c3nc(-c4cnc5ccccc5c4)ccc3ncc21 — 13-fold lower, 5.21 nM
- CCNC(=O)Nc1ccc(-c2ccc3ncc4c(c3n2)n(C2CCN(C(=O)OC(C)(C)C)CC2)c(=O)n4C)cc1 — 1.7-fold lower, 39.9 nM
- COc1ccc(-c2ccc3ncc4c(c3n2)n(C2CCOCC2)c(=O)n4C)cn1 — 3.7-fold lower, 18.5 nM
- Cn1c(=O)n(C2CCOCC2)c2c3nc(-c4ccn[nH]4)ccc3ncc21 — 4.5-fold higher, 309 nM
- Cc1ccc(-c2ccc3ncc4c(c3n2)n(C2CCN(C(=O)CN)CC2)c(=O)n4C)cn1 — within 1.5-fold, 68.9 nM
- COc1ncc(-c2ccc3ncc4c(c3n2)n(-c2ccc(C(C)(C)C#N)cc2)c(=O)n4C)cc1F — within 1.5-fold, 90.7 nM

Source: the Kinase Knowledgebase extract (Sharma et al. 2016)
